Laboratory results reported in patent US4108987A, “Cyclic hexapeptides” (Merck & Co., Inc., priority 1977, dated 1978).
Square brackets hold non-standard residues; d marks the D form. Peptide text beside a SMILES is read from it.

Test system: rumen fluid which contained methane-producing bacteria and other rumen bacteria
Assay: In vitro rumen fermentation test
Format: cell-based
Description: Rumen fluid which contained methane-producing bacteria and other rumen bacteria was produced in a fermentor which was set up and maintained to simulate the conditions of a rumen.
The test was carried out in a screw-cap tube which was sealed with a butyl rubber stopper. […] The air in the tube was replaced with a gas mixture of 97% nitrogen-3% hydrogen made free of oxygen by passage through a catalytic purifier. After incubation for 18 hours in a water bath shaker at 39° C., 0.5 ml. of the gas was removed through the stopper into the sample loop of a Fisher Gas Partitioner. The gas sample was partitioned, and the methane produced was compared to a standard gas mixture containing a known amount of methane. The incubation mixture was acidified with 4 ml. of 10% metaphosphoric acid and centrifuged. One μl. of the supernate was analyzed by gas-liquid chromatography. The volatile fatty acids were compared to a standard volatile fatty acid mixture containing known amounts of acetic, propionic, butyric and valeric acids. Appropriate controls were included.

Question: With `O=C1N[C@H](Cc2ccccc2)C(=O)N2CCC[C@H]2C(=O)N[C@H](Cc2ccccc2)C(=O)N2CCC[C@H]2C(=O)N[C@H](Cc2ccccc2)C(=O)N2CCC[C@@H]12` [cyclo(Pro-D-Phe)3, Cyclo(Pro-D-Phe)3] (cyclo(P[dF]P[dF]P[dF])) as the compound, how does the “CH4 (methane) produced” value (250 μg./ml. of tested compound, incubation 18 hours at 39° C., gas partitioner) read?
Answer: essentially eliminated

Question: And the “shift in VFA ratios” value (250 μg./ml. of tested compound, incubation 18 hours at 39° C., gas-liquid chromatography)?
Answer: significant shift in VFA ratios favoring the longer chain acids

Question: What about the “Valeric acid, μmols” value (Treated 16 μg./ml., control 1.8) of the same compound?
Answer: 4.5 μmols

Question: What about the “Valeric acid, μmols %” value (Treated 16 μg./ml., control 3.0) of the same compound?
Answer: 7.0 μmols %

Question: What about the “Butyric acid, μmols” value (Treated 16 μg./ml., control 7.1) of the same compound?
Answer: 15.3 μmols

Question: And the “Butyric acid, μmols %” value (Treated 16 μg./ml., control 10.5)?
Answer: 25.0 μmols %

Question: And the “Propionic acid, μmols” value (Treated 16 μg./ml., control 19.5)?
Answer: 23.0 μmols

Question: What about the “Propionic acid, μmols %” value (Treated 16 μg./ml., control 28.5) of the same compound?
Answer: 37.0 μmols %

Question: And the “Acetic acid, μmols” value (Treated 16 μg./ml., control 39.9)?
Answer: 18.8 μmols

Question: What about the “Acetic acid, μmols %” value (Treated 16 μg./ml., control 58.5) of the same compound?
Answer: 31.0 μmols %

Question: What about the “Total volatile fatty acids, μmols” value (Treated 16 μg./ml., control 68.3) of the same compound?
Answer: 61.6 μmols

Question: What about the “production of VFAs (summary of tabulated data)” value (in vitro rumen fermentation) of the same compound?
Answer: effective in increasing the production of the VFAs, propionic, butyric and valeric at the expense of methane and acetate
